Measurements reported in ChEMBL document CHEMBL1135263, “Reductive amination products containing naphthalene and indole moieties bind to melanocortin receptors” (Bioorg Med Chem Lett, 2002).

Key:
Melanocortin receptor 4 = Melanocortin receptor 4 (Homo sapiens, UniProt P32245); assay: Tested for its binding affinity towards human recombinant Melanocortin 4 receptor by using radioligand binding assay
Melanocortin receptor 3 [1] = biological target: T1, Melanocortin receptor 3 (Homo sapiens, UniProt P41968); assay: Tested for its binding affinity towards human recombinant Melanocortin 3 receptor by using radioligand binding assay
Melanocortin receptor 5 = Melanocortin receptor 5 (Homo sapiens, UniProt P33032); assay: Tested for its binding affinity towards human recombinant Melanocortin 5 receptor by using radioligand binding assay
[2] = biological target: T2, Melanocyte-stimulating hormone receptor (Homo sapiens, UniProt Q01726); assay: Tested for its binding affinity towards human recombinant Melanocortin 1 receptor by using radioligand binding assay
Melanocortin receptor 3 [3] = biological target: T1, Melanocortin receptor 3; assay: Tested for its binding affinity towards human recombinant Melanocortin 3 receptor by using radioligand binding assay; nb = no binding up to 0.5 mM
[4] = biological target: T2, Melanocyte-stimulating hormone receptor; assay: Tested for its binding affinity towards human recombinant Melanocortin 1 receptor by using radioligand binding assay; nb = no binding up to 0.5 mM

T2 sequence (Q01726 whole entry): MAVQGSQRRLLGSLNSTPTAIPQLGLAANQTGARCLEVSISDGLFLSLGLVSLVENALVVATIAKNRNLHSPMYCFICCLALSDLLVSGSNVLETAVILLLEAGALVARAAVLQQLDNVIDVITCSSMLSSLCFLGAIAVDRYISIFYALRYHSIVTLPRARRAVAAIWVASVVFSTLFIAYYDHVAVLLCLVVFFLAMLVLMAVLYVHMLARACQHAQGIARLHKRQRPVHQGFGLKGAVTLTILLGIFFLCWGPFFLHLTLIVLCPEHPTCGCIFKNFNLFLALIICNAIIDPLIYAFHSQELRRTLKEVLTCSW
Sequence of Melanocortin receptor 4 (P32245 whole entry): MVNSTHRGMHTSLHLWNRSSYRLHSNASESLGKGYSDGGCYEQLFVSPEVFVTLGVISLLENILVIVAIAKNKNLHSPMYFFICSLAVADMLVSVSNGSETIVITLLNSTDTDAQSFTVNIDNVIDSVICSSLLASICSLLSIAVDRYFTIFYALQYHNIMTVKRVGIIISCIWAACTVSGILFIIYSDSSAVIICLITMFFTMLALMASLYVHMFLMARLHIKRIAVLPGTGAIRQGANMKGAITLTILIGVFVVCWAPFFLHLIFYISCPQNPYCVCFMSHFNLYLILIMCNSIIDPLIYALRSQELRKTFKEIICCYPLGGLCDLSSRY
T1 sequence (P41968 whole entry): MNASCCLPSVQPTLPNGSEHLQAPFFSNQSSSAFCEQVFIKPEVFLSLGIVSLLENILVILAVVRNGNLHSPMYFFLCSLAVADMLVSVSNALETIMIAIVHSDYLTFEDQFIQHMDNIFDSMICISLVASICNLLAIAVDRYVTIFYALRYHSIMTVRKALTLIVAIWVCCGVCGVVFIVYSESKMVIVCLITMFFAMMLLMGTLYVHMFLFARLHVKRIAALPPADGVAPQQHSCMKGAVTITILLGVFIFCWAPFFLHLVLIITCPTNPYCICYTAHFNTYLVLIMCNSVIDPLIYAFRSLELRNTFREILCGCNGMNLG
Sequence of Melanocortin receptor 5 (P33032 whole entry): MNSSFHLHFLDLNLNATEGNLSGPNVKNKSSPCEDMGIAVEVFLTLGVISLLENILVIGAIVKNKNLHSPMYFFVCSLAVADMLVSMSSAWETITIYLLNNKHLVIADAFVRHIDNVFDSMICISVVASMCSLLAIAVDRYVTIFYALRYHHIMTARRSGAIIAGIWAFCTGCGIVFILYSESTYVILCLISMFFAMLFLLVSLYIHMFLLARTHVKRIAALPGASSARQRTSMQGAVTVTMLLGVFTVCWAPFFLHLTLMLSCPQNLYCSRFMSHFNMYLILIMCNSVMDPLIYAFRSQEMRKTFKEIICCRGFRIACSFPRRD

SMILES | Ki (Melanocortin receptor 4) | Ki (Melanocortin receptor 3 [1]) | Ki (Melanocortin receptor 5) | Ki [2] | Ki (Melanocortin receptor 3 [3]) | Ki [4]
NCCNC(=O)[C@H](CNCc1ccc2ccccc2c1)NCc1ccc2ccccc2c1 | 44 µM | 58 µM | 28 µM | 27 µM |  | 
c1ccc2c(CCNCc3c[nH]c4ccccc34)c[nH]c2c1 | 161 µM | 86 µM | 18 µM | 32 µM |  | 
c1ccc2c(CN3CCNCC3)c[nH]c2c1 | > 1000 µM | > 1000 µM | 256 µM | > 1000 µM |  | 
c1ccc2cc(CNCCc3c[nH]c4ccccc34)ccc2c1 | 118 µM | 59 µM | 14 µM | 16 µM |  | 
NCCCNCc1ccc2ccccc2c1 | 94 µM | 57 µM | 43 µM | > 1000 µM |  | 
NCCCNCc1c[nH]c2ccccc12 | 104 µM | 145 µM | 150 µM | 28 µM |  | 
N=C(N)N1CCN(Cc2c[nH]c3ccccc23)CC1 | > 1000 µM | > 1000 µM | > 1000 µM | > 1000 µM |  | 
N=C(N)NCCCNCc1c[nH]c2ccccc12 | 107 µM | 45 µM | 47 µM | 12 µM |  | 
NCCNCc1ccc2ccccc2c1 | 8.8 µM |  | 83 µM |  | Not Active | Not Active
c1ccc2cc(CN3CCNCC3)ccc2c1 | > 1000 µM | > 1000 µM | 141 µM | > 1000 µM |  | 
NC(N)=NCCC[C@H](N)C(=O)N(Cc1ccc2ccccc2c1)Cc1cccc2ccccc12 (stereo in doubt; 11c) | 2.1 µM | 18 µM | 2.7 µM | 1.2 µM |  | 

Now from value to compound:

Ki (Melanocortin receptor 4) | Ki (Melanocortin receptor 3 [1]) | Ki (Melanocortin receptor 5) | Ki [2] | Ki (Melanocortin receptor 3 [3]) | Ki [4] | SMILES
70 µM | 52 µM | 12 µM | 11 µM |  |  | NC(N)=NCCC[C@H](N)C(=O)N(Cc1cccc2ccccc12)Cc1c[nH]c2ccccc12
56 µM | 31 µM | 36 µM | 19 µM |  |  | N=C(N)NCCCNCc1ccc2ccccc2c1
27 µM | 56 µM | 36 µM | 0.7 µM |  |  | NCCCNC(=O)[C@H](CNCc1c[nH]c2ccccc12)NCc1ccc2ccccc2c1
> 1000 µM | > 1000 µM | 100 µM | > 1000 µM |  |  | c1ccc2cc(CNCc3cccc4ccccc34)ccc2c1
161 µM | 214 µM | 38 µM | 26 µM |  |  | c1ccc2c(CNCc3c[nH]c4ccccc34)cccc2c1
89 µM | 294 µM | 45 µM | 46 µM |  |  | N[C@H](CCC(=O)O)C(=O)N(Cc1ccc2ccccc2c1)Cc1cccc2ccccc12
24 µM | 167 µM | 173 µM | 9.8 µM |  |  | NCCCCNC(=O)[C@H](CCCCNCc1c[nH]c2ccccc12)NCc1ccc2ccccc2c1
68 µM | > 1000 µM | 74 µM | > 1000 µM |  |  | N=C(N)N1CCN(Cc2ccc3ccccc3c2)CC1
15 µM | 19 µM | 10 µM | 1.5 µM |  |  | NC(N)=NCCCC(N)C(=O)N(CCc1c[nH]c2ccccc12)Cc1ccc2ccccc2c1 (single isomer, unassigned)
5.4 µM | 9 µM | 2.5 µM | 0.69 µM |  |  | NC(N)=NCCC[C@H](N)C(=O)N(Cc1ccc2ccccc2c1)Cc1cccc2ccccc12 (stereo in doubt; 11b)
